Reference: US20200291018A1, “TAM KINASE INHIBITORS” (SYROS PHARMACEUTICALS, INC., priority 2017, published 2020)

Columns and labels:
[1] = molecular target: T1, MERTK (Homo sapiens, UniProt Q12866); assay: TR-FRET kinase activity assay, MERTK; format: biochemical; conditions: for IC50: TR-FRET activity assay, ATP at Km, 60 minutes, read-out: Mer IC50; for Mer/Flt3 ratio (FLT3 IC50/Mer IC50): ratio calculated as FLT3 IC50/Mer IC50
T1 sequence (Q12866 21-999): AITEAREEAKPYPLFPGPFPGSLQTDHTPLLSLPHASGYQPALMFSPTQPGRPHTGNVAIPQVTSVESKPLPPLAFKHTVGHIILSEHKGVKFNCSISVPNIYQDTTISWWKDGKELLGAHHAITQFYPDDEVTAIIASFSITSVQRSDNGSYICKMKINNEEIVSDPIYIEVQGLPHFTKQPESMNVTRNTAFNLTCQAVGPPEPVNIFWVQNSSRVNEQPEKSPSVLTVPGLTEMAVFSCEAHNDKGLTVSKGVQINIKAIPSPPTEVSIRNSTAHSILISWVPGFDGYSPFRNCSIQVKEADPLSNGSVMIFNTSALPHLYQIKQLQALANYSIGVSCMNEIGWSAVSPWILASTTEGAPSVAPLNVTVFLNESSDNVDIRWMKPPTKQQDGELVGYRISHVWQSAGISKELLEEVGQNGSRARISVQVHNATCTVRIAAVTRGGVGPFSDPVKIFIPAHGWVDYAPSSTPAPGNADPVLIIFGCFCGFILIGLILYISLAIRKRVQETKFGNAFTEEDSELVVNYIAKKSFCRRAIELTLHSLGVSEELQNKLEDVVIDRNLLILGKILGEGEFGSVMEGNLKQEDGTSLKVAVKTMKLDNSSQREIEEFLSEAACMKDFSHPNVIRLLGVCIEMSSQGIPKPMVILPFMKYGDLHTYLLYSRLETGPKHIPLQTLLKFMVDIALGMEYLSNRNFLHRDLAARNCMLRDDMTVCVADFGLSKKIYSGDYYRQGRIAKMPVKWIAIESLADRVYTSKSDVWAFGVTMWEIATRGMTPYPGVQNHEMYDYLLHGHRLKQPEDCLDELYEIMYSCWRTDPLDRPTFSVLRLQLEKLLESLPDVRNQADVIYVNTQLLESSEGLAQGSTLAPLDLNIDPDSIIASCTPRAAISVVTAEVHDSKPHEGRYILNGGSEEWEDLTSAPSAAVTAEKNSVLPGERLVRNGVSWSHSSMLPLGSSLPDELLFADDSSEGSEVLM
Outline: (§1)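 IC50s come from loss of TR-FRET between a Eu-labeled phospho-site antibody and fluorescent tyrosine-phosphorylated peptide. Kinase reactions, initiated with Km ATP, ran 60 min at RT at pH 7.5 before EDTA quench.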

[2] = molecular target: T2, TYRO3 (Homo sapiens, UniProt Q06418); assay: TR-FRET kinase activity assay, TYRO3; format: biochemical; conditions: ATP at Km, 60 minutes
T2 sequence (Q06418 41-890): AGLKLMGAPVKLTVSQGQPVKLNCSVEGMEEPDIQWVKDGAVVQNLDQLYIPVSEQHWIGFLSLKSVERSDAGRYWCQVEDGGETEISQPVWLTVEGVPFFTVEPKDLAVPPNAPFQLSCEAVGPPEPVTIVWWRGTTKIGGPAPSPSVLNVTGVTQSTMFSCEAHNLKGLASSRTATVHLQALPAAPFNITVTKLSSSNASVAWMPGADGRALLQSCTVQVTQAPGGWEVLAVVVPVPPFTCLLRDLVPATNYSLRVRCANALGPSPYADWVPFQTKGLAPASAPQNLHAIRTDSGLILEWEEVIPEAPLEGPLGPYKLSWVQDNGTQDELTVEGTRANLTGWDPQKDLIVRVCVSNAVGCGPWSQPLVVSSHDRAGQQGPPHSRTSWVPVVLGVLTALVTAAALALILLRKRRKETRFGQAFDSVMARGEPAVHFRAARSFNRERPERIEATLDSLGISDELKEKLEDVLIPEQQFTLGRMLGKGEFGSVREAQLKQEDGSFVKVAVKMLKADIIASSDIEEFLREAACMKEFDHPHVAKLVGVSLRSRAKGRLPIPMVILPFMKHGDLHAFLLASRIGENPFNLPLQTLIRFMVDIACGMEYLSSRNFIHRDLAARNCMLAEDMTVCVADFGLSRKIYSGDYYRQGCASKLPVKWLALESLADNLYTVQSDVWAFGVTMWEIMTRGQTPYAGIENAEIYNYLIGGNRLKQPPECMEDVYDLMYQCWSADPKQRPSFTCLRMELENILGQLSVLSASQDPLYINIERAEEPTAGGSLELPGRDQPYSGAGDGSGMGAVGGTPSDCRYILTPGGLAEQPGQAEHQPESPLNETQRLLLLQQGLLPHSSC
Outline: as §1

SMILES	IC50 [1] [nM]	Mer/Flt3 ratio (FLT3 IC50/Mer IC50) [1]	IC50 [2] [nM]
O[C@H]1CC[C@H](c2cnc(OC3CCOCC3)c3cnc(N[C@H]4CCC(F)(F)C4)nc32)CC1 [Compound 336]	≤ 100	++ (a ratio of between 10 and 100)	100 to 1000
COC[C@H](C)Nc1ncc2c(OC3CCOCC3)ncc(-c3ccc(N)nc3)c2n1 [Compound 337]	≤ 100	+++ (a ratio of >100)	100 to 1000
C[C@H](CC(F)(F)F)Nc1ncc2c(OC3CCOCC3)ncc([C@H]3CC[C@H](O)CC3)c2n1 [Compound 338]	≤ 100	+++ (a ratio of >100)	100 to 1000
CCC1(Nc2ncc3c(OC4CCOCC4)ncc([C@H]4CC[C@H](O)CC4)c3n2)CC1 [Compound 339]	≤ 100	+++ (a ratio of >100)	100 to 1000
CNC(=O)N[C@H]1CC[C@H](c2cnc(OC3CCOCC3)c3cnc(N[C@@H](C)COC)nc32)CC1 [Compound 340]	≤ 100	+++ (a ratio of >100)	100 to 1000
CNS(=O)(=O)N1CCC(c2cnc(OC3CCOCC3)c3cnc(N[C@@H](C)COC)nc23)CC1 [Compound 341]	≤ 100	+++ (a ratio of >100)	100 to 1000
COC[C@H](C)Nc1ncc2c(OC3CCOCC3)ncc(-c3ccnnc3)c2n1 [Compound 342]	1000 to 10000	+ (a ratio of >2.0 and <10)	1000 to 10000
COC[C@H](C)Nc1ncc2c(OC3C[C@H]4CC[C@@H](C3)N4C)ncc([C@H]3CC[C@H](O)CC3)c2n1 (stereo partly drawn) [Compound 343]	≤ 100	+++ (a ratio of >100)	≤ 100
COC[C@H](C)Nc1ncc2c(OC3CCN(c4ncccn4)CC3)ncc([C@H]3CC[C@H](O)CC3)c2n1 [Compound 344]	≤ 100	+++ (a ratio of >100)	100 to 1000
CNC(=O)N1CCC(c2cnc(OC3CCOCC3)c3cnc(N[C@@H](C)COC)nc23)CC1 [Compound 345]	100 to 1000	++ (a ratio of between 10 and 100)	1000 to 10000
COC[C@H](C)Nc1ncc2c(OC3CCOCC3)ncc(C3CCCCN3)c2n1 (stereo partly drawn) [Compound 346]	100 to 1000	+ (a ratio of >2.0 and <10)	1000 to 10000
COC[C@H](C)Nc1ncc2c(OC3CCOCC3)ncc(-c3cn[nH]c3)c2n1 [Compound 347]	100 to 1000	+ (a ratio of >2.0 and <10)	100 to 1000
COC[C@H](C)Nc1ncc2c(C3CC3)ncc([C@H]3CC[C@H](O)CC3)c2n1 [Compound 349]	≤ 100	+++ (a ratio of >100)	≤ 100
COC[C@H](C)Nc1ncc2c(OC3CCOCC3)ncc(C3CCCCN3C)c2n1 (stereo partly drawn) [Compound 350]	100 to 1000	++ (a ratio of between 10 and 100)	1000 to 10000
COC[C@@H](C)Nc1ncc2c(OC3CC(O)C3)ncc([C@H]3CC[C@H](O)CC3)c2n1 (stereo partly drawn) [Compound 351]	≤ 100	+++ (a ratio of >100)	≤ 100
C[C@@H](CC(F)(F)F)Nc1ncc2c(OC3CCN(C)CC3)ncc([C@H]3CC[C@H](O)CC3)c2n1 [Compound 352]	≤ 100	+++ (a ratio of >100)	≤ 100
O=C(O)[C@H]1CC[C@@H](Nc2ncc3c(OC4CCOCC4)ncc([C@H]4CC[C@H](O)CC4)c3n2)CC1 [Compound 353]	1000 to 10000	+ (a ratio of >2.0 and <10)	1000 to 10000
COC[C@H](C)Nc1ncc2c(O[C@@H]3CCOC3)ncc([C@H]3CC[C@H](O)CC3)c2n1 [Compound 354]	≤ 100	+++ (a ratio of >100)	100 to 1000
